Reference: patent US9296710B2, “Bicyclo (3.1.0) hexane-2, 6-dicarboxylic acid derivatives as mGlu2 receptor agonist” (Eli Lilly and Company, priority 2011, dated 2016)
Where a name gives a salt, the structure may show the parent alone.

Assays:
[1] = system: immobility in forced swim test in mice; assay: Forced Swim Test in Rodents (mice); format: in vivo, mouse; conditions: intraperitoneal dosing 60 min prior to testing
Description: In this assay, mechanisms with purported antidepressant-like activity decrease immobility in a brief inescapable forced swim episode.
The forced-swim test was conducted in mice (male, NIH-Swiss mice, 20-25 g, Harlan Sprague-Dawley, Indianapolis, Ind.). Mice are placed in clear plastic cylinders (diameter 10 cm; height: 25 cm) filled to 6 cm with 22-25° C. water for six min. The duration of immobility is recorded during the last 4 min of a six-minute trial. The compounds of Examples 2, 3, 8, 11, and 12 are tested following intraperitoneal dosing, 60 min prior to testing. Imipramine is used as a positive control for these studies. Compounds are formulated in a water vehicle, with minimal NaOH added. The amount of time spent immobile (defined as movements only necessary to keep the subject's head above water) is the dependent measure and recorded by an observer blinded to the drug treatment of the subjects. Data are analyzed by post-hoc Dunnett's test with alpha level set at 0.05.

[2] = system: PCP-induced hyperlocomotor activity in mice; assay: Reversal of Phencyclidine (PCP)-Induced Hyperlocomotor Activity in Mice; format: in vivo, mouse; conditions: Mus musculus, i.p. administration, 30 minutes prior to 7.5 mg/kg PCP
Source text: This assay for Reversal of Phencyclidine (PCP)-Induced Hyperlocomotor Activity in Mice is run substantially as the Reversal of Phencyclidine (PCP)-Induced Hyperlocomotor Activity in Rats assay provided above, using mice instead of rats and with the changes noted below.
Motor activity is monitored by placing individual male, ICR (CD-1), (Harlan, Indianapolis, Ind.) mice in transparent, plastic shoe-box cages of the dimensions 45×25×20 cm, with 0.5 cm depth of wood chips as bedding, and plastic lid on top of the cage. Motor monitors (Kinder Scientific) consist of a rectangular rack of 12 photobeams arranged in an 8×4 formation, (or a high density grouping of 22 in a 15×7 pattern) at a height of 2.5 cm. The shoe box cage is placed inside of these racks, with the racks on a 3 foot high tabletop in an isolated room. A compound of the present invention is dosed (intraperitoneal route, non-prodrug) usually within a range of 0.3-30 mg/kg; though higher doses may be used, 30 minutes prior to a 7.5 mg/kg challenge dose of phencyclidine (PCP). On the test day, mice are placed in the test cage and allowed to acclimate for 45 minutes prior to PCP challenge; mice are monitored for an additional 60 minutes following PCP administration.
Power analyses have determined that 7-8 mice per group are needed to have appropriate statistical power for detecting treatment differences (power=0.8).

[3] = molecular target: T1, PepT1 (Homo sapiens, UniProt P46059); assay: In Vitro PepT1 GlySar Inhibition Screen; format: cell-based; conditions: for inhibition at 5000 µM: prodrug at 5 mM, pH 6.0, PepT1 transiently transfected HeLa cells, 5 μM [14C]Gly-Sar and 20 μM cold Gly-Sar, read-out: Mean GlySar Uptake Inhibition %; for GlySar uptake inhibition, mean values ± standard deviation (controls): negative and positive controls run in parallel, n=18-19
T1 construct: expressed in transfected cells; host or cells: HeLa cells (ATCC), transient transfection with FUGENE6
T1 sequence (P46059 1-708): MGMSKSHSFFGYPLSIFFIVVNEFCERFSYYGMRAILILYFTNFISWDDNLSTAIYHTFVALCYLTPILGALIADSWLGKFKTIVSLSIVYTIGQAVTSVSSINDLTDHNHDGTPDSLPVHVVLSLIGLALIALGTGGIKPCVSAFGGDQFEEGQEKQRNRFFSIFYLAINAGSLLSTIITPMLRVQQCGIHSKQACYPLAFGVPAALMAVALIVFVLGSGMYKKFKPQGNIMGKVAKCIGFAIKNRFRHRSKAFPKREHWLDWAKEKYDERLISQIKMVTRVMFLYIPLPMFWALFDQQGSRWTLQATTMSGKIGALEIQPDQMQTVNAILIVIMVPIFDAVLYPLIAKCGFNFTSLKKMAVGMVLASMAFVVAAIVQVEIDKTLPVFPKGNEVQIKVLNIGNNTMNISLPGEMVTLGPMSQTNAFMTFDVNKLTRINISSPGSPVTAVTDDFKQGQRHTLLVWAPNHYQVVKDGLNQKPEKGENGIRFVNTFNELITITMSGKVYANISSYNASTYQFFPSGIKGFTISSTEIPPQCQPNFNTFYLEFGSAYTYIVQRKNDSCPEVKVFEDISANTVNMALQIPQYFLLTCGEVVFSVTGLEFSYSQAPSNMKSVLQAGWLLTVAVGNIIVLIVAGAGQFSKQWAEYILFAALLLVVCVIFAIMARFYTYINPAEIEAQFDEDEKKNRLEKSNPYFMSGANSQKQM
Description: PepT1 assays are established to examine the ability of the amino acid prodrug compounds to interact with the intestinal absorption transporter PepT1.
HeLa cells, derived from human cancer cells, (American Type Culture Collection) are grown in Hyclone Medium (Invitrogen, Cat# SH30243) containing 10% fetal bovine serum (FBS), 0.1 mM non essential amino acids (NEAA), and 100 units/mL penicillin with 100 μg/mL streptomycin at 37° C. in a 5% CO2 humidified atmosphere. The cell line is used for up to 40 passages and then discarded. Frozen cells in 1 mL vials are thawed in water bath for 1-2 minutes and added to 5 mL of cell medium at 37° C. Each of the T-flasks is provided with 8.5 mL of the fresh medium and 1.5 mL of the cell stock. Cells are passaged twice during a week. […] Each new flask receives a combination of 8.5 mL of fresh medium and 1.5 mL of cell stock, in order to obtain 1:6 cell dilution. Cells are incubated at 37° C., until ready for the uptake study.
Cells that are 70-80% confluent in the T-flasks are plated 1 day prior to the transfection procedure. The flask with the cell stock is treated with PBS-EDTA and trypsin to detach the cells, and transfection medium is used from this point. Transfection medium consists of Dulbecco's Modified Eagle Medium (DMEM)+NEAA. To each well, 0.5 mL of the cell mixture is added (1.3×10^5 is the desired cell concentration) and the cells are incubated at 37° C. overnight. Twenty four hours before the assay, cells are transfected with PEPT1. Transfection mixture is prepared by mixing 600 μL of serum free transfection medium, 18 μL of FUGENE6® (Roche Diagnostics), and 11 μg of the PepT1 DNA. The transfection reagent-DNA complex is incubated for 20 minutes and 24 μL of the reagent-DNA complex is added to each well.
Inhibition of PEPT1-mediated [glycyl-1-2-^14C]Glyclysarcosine (GlySar) uptake activity is measured in the cells cultured in the 24-well plates 24-hours post transfection as previously published (Zhang et al. 2004. J. Pharm. Exper Ther. 310:437-445). To measure the ability of a compound of the present invention to inhibit the uptake of [^14C]Gly-Sar, prodrug compounds are incubated with 80 to 90% confluent PepT1 transiently transfected HeLa cells at 5 mM in pH 6.0 uptake medium in the presence of 5 μM [^14C]Gly-Sar (Moravek Biochemicals) and 20 μM cold Gly-Sar. Uptake media consists of 140 mM NaCl, 5.4 mM KCl, 1.8 mM CaCl2, 0.8 mM MgSO4, 5 mM Glucose, 25 mM tris(hydroxymethyl)aminomethane buffer (TRIS). The solution is then brought to pH 6.0 using 2-(N-morpholino)ethanesulfonic acid. The incubation volume is 500 μL and is performed at room temperature for 3 minutes. To stop the uptake at the conclusion of the incubation time, the uptake media is aspirated off of the cell monolayer and 500 μL of ice cold PBS added to the well. The cells are washed 3 times with 500 μL of room temperature PBS without Ca^+2 and Mg^+2. The cells are then lysed with 300 μL of 1% TRITON® X100 H2O solution. A 200 μL aliquot is removed and radioactivity is determined by liquid scintillation counting to measure the [^14C]Gly-Sar present in each of the incubation wells. A no inhibitor control is established and the percent inhibition of each prodrug is calculated with respect to this control.

[4] = molecular target: T2, human mGlu2 receptor (Homo sapiens, UniProt Q14416); assay: Human mGlu2 Agonist FLIPR Assay; format: cell-based; conditions: for Emax: percent stimulation relative to maximal glutamate response (100 μM glutamate), read-out: Relative % Efficacy
T2 construct: expressed in transfected cells; host or cells: AV-12 cells (Syrian hamster fibroblasts), co-transfected with rat EAAT1 and Galpha15
Source text: AV-12 cell lines, derived from Syrian Hamster fibroblasts and stably expressing the human mGlu2 receptor and co-transfected with the rat glutamate transporter EAAT 1 (Excitatory Amino Acid Transporter 1) and the Gα15 subunit, are used for these studies. The expression of Gα15 allows Gi-coupled receptors to signal through the phospholipase C pathway, resulting in the ability to measure receptor activation by a fluorometric calcium response assay. The cell lines are maintained by culturing in Dulbecco's Modified Eagle's Medium (DMEM) with high glucose and pyridoxine hydrochloride supplemented with 5% dialyzed fetal bovine serum, 1 mM sodium pyruvate, 10 mM HEPES [4-(2-hydroxyethyl)-1-piperazineethanesulfonic acid], 1 mM of L-glutamine, and 5 μg/mL blasticidin (all media are purchased from Invitrogen). Confluent cultures are passaged biweekly using an enzyme-free dissociation solution (Chemicon S-004-B).
Intracellular calcium levels are monitored before and after the addition of compounds using a Fluorometric Imaging Plate Reader (FLIPR®, Molecular Devices). The assay buffer is comprised of Hank's Buffered Salt Solution (HBSS; Sigma) supplemented with 20 mM HEPES. […] The dye solution is removed and replaced with fresh assay buffer (50 μL per well). […] Results are analyzed using PRISM® v4.03 (GraphPad Software). […] Exemplified compounds of the present invention are solubilized as 10 mM stocks in 0.1N NaOH and stored at −20 C. They are diluted through a three-fold dilution series into assay buffer. After taking an initial 5-sec fluorescent read on the FLIPR® instrument, a compound of the present invention is added to the cell plate (50 μL per well). Data are collected every second for the first 30 seconds and then every 3 seconds for a total of 90 seconds in order to detect agonist activity. The maximal response is defined as that induced by ECmax (100 μM glutamate). The compound effect is measured as maximal minus minimal peak heights in relative fluorescent units (RFUs) corrected for basal fluorescence measured in the absence of glutamate. Determinations are carried out using single plates. Agonist effects are quantified as percent stimulation induced by compound alone relative to the maximal glutamate response. All data are calculated as relative EC50 values using a four-parameter logistic curve fitting program (ACTIVITY BASE® v5.3.1.22).

T2 sequence (Q14416 19-872): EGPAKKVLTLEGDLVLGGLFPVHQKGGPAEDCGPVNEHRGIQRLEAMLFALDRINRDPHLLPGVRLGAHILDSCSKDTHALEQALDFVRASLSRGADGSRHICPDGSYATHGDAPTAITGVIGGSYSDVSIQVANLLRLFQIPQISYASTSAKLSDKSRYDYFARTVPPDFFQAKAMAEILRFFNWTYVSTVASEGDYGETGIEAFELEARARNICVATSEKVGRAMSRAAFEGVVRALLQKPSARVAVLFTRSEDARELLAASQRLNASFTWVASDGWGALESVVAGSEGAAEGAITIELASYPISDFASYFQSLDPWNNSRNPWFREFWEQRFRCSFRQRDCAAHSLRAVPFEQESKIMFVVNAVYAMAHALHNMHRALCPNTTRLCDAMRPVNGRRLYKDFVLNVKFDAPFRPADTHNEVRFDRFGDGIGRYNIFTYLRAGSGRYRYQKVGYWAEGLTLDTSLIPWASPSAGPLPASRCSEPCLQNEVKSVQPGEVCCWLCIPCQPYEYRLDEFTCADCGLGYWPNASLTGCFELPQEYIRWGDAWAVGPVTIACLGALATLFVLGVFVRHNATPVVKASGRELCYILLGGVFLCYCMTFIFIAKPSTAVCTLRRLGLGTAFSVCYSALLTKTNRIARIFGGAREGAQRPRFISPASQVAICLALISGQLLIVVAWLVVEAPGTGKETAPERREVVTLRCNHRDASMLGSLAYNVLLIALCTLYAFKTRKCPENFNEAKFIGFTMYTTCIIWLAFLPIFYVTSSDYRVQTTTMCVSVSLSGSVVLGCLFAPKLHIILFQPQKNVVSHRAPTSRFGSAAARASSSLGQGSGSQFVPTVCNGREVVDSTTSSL

Row | SMILES | ED50 [2] [mg/kg] | inhibition at 5000 µM [3] [%] | Emax [4] [%] | further results
1 | Nc1nnc(S[C@@H]2C[C@@](N)(C(=O)O)[C@@H]3[C@@H](C(=O)O)[C@@H]32)[nH]1 [Example 3, (1R,2S,4R,5R,6R)-2-Amino-4-(5-amino-[1,3,4]triazol-2-ylsulfanyl)-bicyclo[3.1.0]hexane-2,6-dicarboxylic acid] | 17.1 | – | – | ED60 (60% of the amount of immobility relative to vehicle controls) [1]: < 3 mg/kg
2 | C[C@H](N)C(=O)N[C@@]1(C(=O)O)C[C@@H](Sc2nnc(C(F)(F)F)[nH]2)[C@H]2[C@H](C(=O)O)[C@H]21 [Example 16, (1R,2S,4R,5R,6R)-2-[[(2S)-2-Aminopropanoyl]amino-4-[[5-(trifluoromethyl)-1H-1,2,4-triazol-3-yl]thio]bicyclo[3.1.0]hexane-2,6-dicarboxylic acid hydrochloride] | – | 53.9 | – | –
3 | NCC(=O)O [Glycine, reference compound] | – | – | – | GlySar uptake inhibition, mean values ± standard deviation (controls) [3]: 10.1±9.5%
4 | NCC(=O)N[C@@]1(C(=O)O)C[C@H](Sc2nnc[nH]2)[C@H]2[C@H](C(=O)O)[C@H]21 [Example 22, (1R,2S,4S,5R,6R)-2-[(-2-Aminoacetyl)amino]-4-(4H-1,2,4-triazol-3-ylsulfanyl)bicyclo[3.1.0]hexane-2,6-dicarboxylic acid hydrochloride] | – | 46.7 | – | –
5 | Cl.N[C@@]1(C(=O)O)C[C@@H](Sc2nnc(C(F)(F)F)[nH]2)[C@H]2[C@H](C(=O)O)[C@H]21 [Example 2, (1R,2S,4R,5R,6R)-2-Amino-4-(5-trifluoromethyl-1H-[1,2,4]triazol-3-ylsulfanyl)-bicyclo[3.1.0]hexane-2,6-dicarboxylic acid hydrochloride] | 14.4 | – | 78.5 | –
6 | N[C@@]1(C(=O)O)C[C@H](Sc2n[nH]c(C(F)(F)F)n2)[C@H]2[C@H](C(=O)O)[C@H]21 [Example 12, (1R,2S,4S,5R,6R)-2-Amino-4-[[5-(trifluoromethyl)-1H-1,2,4-triazol-3-yl]sulfanyl]bicyclo[3.1.0] hexane-2,6-dicarboxylic acid hydrochloride] | – | – | 92.1 | –
7 | CC1=C(C(=O)O)N2C(=O)[C@@H](NC(=O)[C@H](N)c3ccc(O)cc3)[C@H]2SC1 [Cefadroxil, reference compound] | – | – | – | GlySar uptake inhibition, mean values ± standard deviation (controls) [3]: 53.2±13.2%
8 | CC(C)C[C@H](N)C(=O)N[C@@]1(C(=O)O)C[C@H](Sc2nnc[nH]2)[C@H]2[C@H](C(=O)O)[C@H]21 [Example 24, (1R,2S,4S,5R,6R)-2-(L-leucylamino)-4-(4H-1,2,4-triazol-3-ylsulfanyl)bicyclo [3.1.0]hexane-2,6-dicarboxylic acid hydrochloride] | – | 47.1 | – | –
9 | Cl.N[C@@]1(C(=O)O)C[C@@H](Sc2cn[nH]n2)[C@H]2[C@H](C(=O)O)[C@H]21 [Example 1, (1R,2S,4R,5R,6R)-2-Amino-4-(2H-[1,2,3]triazol-4-ylsulfanyl)-bicyclo[3.1.0]hexane-2,6-dicarboxylic acid hydrochloride] | 18.4 | – | 92.6 | EC50 ([4]; hMGLUR2 FLIPR assay, AV-12 cells expressing human mGlu2, calcium response, read-out: Relative EC50): 46 nM
